# Measurements as given in patent US11840686B2, “Modulation of prekallikrein (PKK) expression” (Ionis Pharmaceuticals, Inc., priority 2013, dated 2023).
# Strand notation (5' to 3'): a small letter for the sugar, then the base; units joined by * are phosphorothioate-linked, units joined directly phosphodiester-linked; [ ] holds rarer units or linkages, { } end groups; capitals alone tell only the bases. e = 2'-O-(2-methoxyethyl) (MOE); k = constrained ethyl (cEt); [5mC] = 5-methylcytosine; d = 2'-deoxy (DNA)
# System: human PKK mRNA
# Assay: Antisense inhibition of human PKK mRNA in HepaRG cells, 1,000 nM, MOE/deoxy/cEt oligonucleotides (Example 3)
# Assay type: cell-based
# Conditions: PKK mRNA, HepaRG cells, 1,000 nM antisense oligonucleotide; Table 31
# Summary of the method: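 Readout is percent PKK mRNA reduction against untreated controls, by real-time PCR (RTS3454) adjusted for total RNA via RIBOGREEN. Oligonucleotides, phosphorothioate gapmers of 16 nucleosides with cEt, MOE and deoxy sugars, were delivered at 1,000 nM by electroporation to 20,000 HepaRG cells/well for roughly 24 h.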
row,Substance,% inhibition [%]
1,548622 (antisense eT*eT*kT*d[5mC]*dT*dA*dT*dG*dG*dG*d[5mC]*d[5mC]*dT*kG*kA*e[5mC]) [compound 548622],0
2,548623 (antisense eG*e[5mC]*kT*dG*dT*d[5mC]*dA*d[5mC]*dT*dT*dA*dA*dG*k[5mC]*k[5mC]*eA) [compound 548623],16
3,548624 (antisense eT*e[5mC]*kT*dA*dG*dG*dG*d[5mC]*d[5mC]*dA*d[5mC]*dA*d[5mC]*k[5mC]*kT*e[5mC]) [compound 548624],24
4,548625 (antisense eG*eT*kT*d[5mC]*dT*dA*d[5mC]*dA*d[5mC]*dA*d[5mC]*dA*dG*kT*kA*e[5mC]) [compound 548625],0
5,548626 (antisense eG*e[5mC]*kA*dG*dT*dA*dT*dG*dT*dT*d[5mC]*dA*dA*kT*k[5mC]*e[5mC]) [compound 548626],36
6,548627 (antisense e[5mC]*e[5mC]*k[5mC]*dA*d[5mC]*dA*dT*dG*dT*dA*d[5mC]*d[5mC]*dA*k[5mC]*k[5mC]*eG) [compound 548627],22
7,548628 (antisense eG*eT*kA*dT*dG*dG*d[5mC]*dA*dG*dA*dG*d[5mC]*d[5mC]*k[5mC]*k[5mC]*eT) [compound 548628],9
8,548629 (antisense e[5mC]*e[5mC]*k[5mC]*dA*dT*d[5mC]*dT*dT*dG*dG*dG*dA*d[5mC]*kT*kT*eT) [compound 548629],44
9,548630 (antisense eT*eG*kG*dT*d[5mC]*d[5mC]*d[5mC]*dA*dA*dA*dT*dT*dG*kG*kA*eG) [compound 548630],33
10,548631 (antisense e[5mC]*eT*k[5mC]*dA*d[5mC]*dA*dA*dT*dA*d[5mC]*dT*dG*dA*kG*k[5mC]*e[5mC]) [compound 548631],55
11,548632 (antisense eG*eG*kA*dG*dA*dT*dA*dT*d[5mC]*dA*dG*dG*dT*kG*k[5mC]*eA) [compound 548632],45
12,548633 (antisense e[5mC]*eA*kA*dG*dG*d[5mC]*dA*dT*dG*dT*dG*dT*dG*k[5mC]*kA*e[5mC]) [compound 548633],41
13,548634 (antisense eG*e[5mC]*k[5mC]*dT*dT*dA*dT*dT*d[5mC]*dT*dG*dT*dG*k[5mC]*kA*eA) [compound 548634],0
14,548635 (antisense eA*eG*kG*dT*dG*dT*dG*dG*d[5mC]*dG*d[5mC]*dG*d[5mC]*kG*k[5mC]*e[5mC]) [compound 548635],18
15,548636 (antisense e[5mC]*eT*k[5mC]*dT*dA*dT*dA*d[5mC]*dA*dG*d[5mC]*dT*dG*kG*kG*e[5mC]) [compound 548636],5
16,548637 (antisense eG*e[5mC]*kT*dG*dA*dT*d[5mC]*dT*dT*d[5mC]*dT*dA*dA*kT*kG*e[5mC]) [compound 548637],38
17,548638 (antisense e[5mC]*e[5mC]*kT*d[5mC]*dA*dT*dT*dG*d[5mC]*dT*d[5mC]*d[5mC]*dA*k[5mC]*kT*eA) [compound 548638],26
18,548639 (antisense eT*eG*kG*dG*dA*dA*dG*dA*dA*dA*d[5mC]*dT*dA*kG*k[5mC]*eA) [compound 548639],10
19,548640 (antisense eG*eA*kA*dT*dG*dT*dT*dG*d[5mC]*dT*dG*dT*d[5mC]*k[5mC]*k[5mC]*eA) [compound 548640],32
20,548641 (antisense eG*e[5mC]*kA*dT*d[5mC]*dA*dT*dG*d[5mC]*dT*dT*dA*d[5mC]*kT*kG*e[5mC]) [compound 548641],23

row,Substance,% inhibition [%]
1,548642 (antisense eG*e[5mC]*kG*dG*d[5mC]*dA*dG*dT*dA*dG*dT*dG*dA*kA*kT*e[5mC]) [compound 548642],23
2,548643 (antisense e[5mC]*e[5mC]*kT*dA*d[5mC]*d[5mC]*dT*dA*dA*dT*dT*d[5mC]*d[5mC]*kT*k[5mC]*e[5mC]) [compound 548643],0
3,548644 (antisense eA*eA*k[5mC]*dT*dG*dG*dG*d[5mC]*dA*dG*dT*d[5mC]*d[5mC]*kT*kT*e[5mC]) [compound 548644],14
4,548645 (antisense e[5mC]*e[5mC]*kA*dG*d[5mC]*dG*d[5mC]*dA*dA*dT*dT*d[5mC]*dT*kG*k[5mC]*eT) [compound 548645],8
5,548646 (antisense e[5mC]*eG*kT*dT*dT*d[5mC]*d[5mC]*d[5mC]*dT*d[5mC]*dA*dA*d[5mC]*kT*k[5mC]*e[5mC]) [compound 548646],24
6,548647 (antisense e[5mC]*eA*k[5mC]*dG*dG*d[5mC]*dA*dA*dG*dT*d[5mC]*dG*d[5mC]*kG*kG*eG) [compound 548647],39
7,548648 (antisense e[5mC]*eA*kG*dT*dT*dG*dT*dA*dT*d[5mC]*d[5mC]*d[5mC]*dT*k[5mC]*k[5mC]*e[5mC]) [compound 548648],32
8,548649 (antisense eG*e[5mC]*k[5mC]*dT*d[5mC]*dT*d[5mC]*dA*dG*dA*d[5mC]*dG*dG*k[5mC]*kA*e[5mC]) [compound 548649],0
9,548650 (antisense e[5mC]*eT*kG*dA*dT*d[5mC]*d[5mC]*d[5mC]*dA*d[5mC]*dT*dT*dG*k[5mC]*k[5mC]*e[5mC]) [compound 548650],21
10,548651 (antisense eA*eG*kT*d[5mC]*dT*d[5mC]*dT*dT*dT*d[5mC]*d[5mC]*dT*dA*k[5mC]*k[5mC]*e[5mC]) [compound 548651],61
11,548652 (antisense e[5mC]*e[5mC]*kA*d[5mC]*dG*dA*dT*dG*d[5mC]*dT*d[5mC]*dT*dG*kG*k[5mC]*e[5mC]) [compound 548652],65
12,548653 (antisense eT*e[5mC]*kG*dG*d[5mC]*dT*d[5mC]*d[5mC]*dT*dG*dG*d[5mC]*dA*kG*k[5mC]*eA) [compound 548653],46
13,548654 (antisense eA*e[5mC]*k[5mC]*dA*dT*dT*d[5mC]*d[5mC]*dT*dG*dA*d[5mC]*d[5mC]*kA*kT*eG) [compound 548654],34
14,548656 (antisense eT*eT*kA*d[5mC]*dA*dA*d[5mC]*dA*dG*dA*d[5mC]*d[5mC]*d[5mC]*kA*kG*eG) [compound 548656],35
15,548657 (antisense eA*eG*k[5mC]*dA*dG*dG*dG*dT*dA*dT*d[5mC]*dT*dT*k[5mC]*kA*e[5mC]) [compound 548657],26
16,548658 (antisense eG*eA*kA*dG*dT*dT*d[5mC]*d[5mC]*dT*dG*dT*dG*dT*k[5mC]*kT*eT) [compound 548658],11
17,548659 (antisense e[5mC]*e[5mC]*kA*dA*d[5mC]*d[5mC]*dT*d[5mC]*dT*dA*dA*dG*dG*k[5mC]*kT*eA) [compound 548659],17
18,548660 (antisense eA*eT*kG*d[5mC]*dT*dT*dA*d[5mC]*d[5mC]*dT*dT*dT*d[5mC]*kT*k[5mC]*e[5mC]) [compound 548660],0
19,548661 (antisense eA*e[5mC]*kG*dA*d[5mC]*d[5mC]*d[5mC]*dA*d[5mC]*dT*d[5mC]*d[5mC]*dA*kT*kG*eT) [compound 548661],18
